Reference: PMC12320299 (Chemical Science, 2025)

Tested on: p21
Test: p21 expression, western blotting and immunofluorescence, SW480
Format: cell-based, human
Conditions: 24 h, 1 μM
Procedure: overnight at –20 °C. The pellet containing the nuclei was incubated with a hypertonic solution (10 mM Tris-HCl, 1 mM EDTA and 0.5 M NaCl) and subsequently diluted 1:10 with NP-40 buffer (10 mm Tris-HCl, 1 mm EDTA and 0.5% Triton X-100) containing protease inhibitors (1% PMSF, Sigma, and 1% protease and phosphatase inhibitor cocktail, Roche). After centrifugation (960 g, 5 min), the soluble nuclear (NE) proteins were also transferred into new tubes containing ice-cold ethanol (1 : 5, HPLC grade) and precipitated overnight at –20 °C.
The precipitated proteins were finally pelleted by centrifugation (5000 g, 30 min, 4 °C), the solution was decanted and the pellet dried under vacuum.
Samples were then dissolved in lysis buffer (8 M urea, 20% SDS, 1 M TEAB at pH 7.55) and denatured at 95 °C for 5 min. The protein amount was then quantified using a BCA assay. A total of 20 µg protein per sample was used for processing. Proteins were reduced with 50 µL of DTT (64 mM) and carbamidomethylated with 50 µL of iodoacetamide (486 mM). […]
and allowed to adhere overnight. […] For whole cell lysates, samples were collected, proteins isolated, and Western blotting performed as described in detail previously.5 In brief, protein concentration was determined using the Micro BCA™ Protein Assay Kit (Thermo Fisher Scientific, Waltham, MA, USA). […]

SMILES: CCC1=C2[O][Ru][O]C2(n2cccn2)c2ccccc2C1=O.Cc1ccc(C(C)C)cc1 (stereo not shown) [Compound 1a, [(3-ethyl-4-oxo-(pyrazolyl)-dihydronaphthalene)(cymene)ruthenium(II)]]
- p21 expression, SW480: significantly reduced p21 expression
